Measured values from patent US12054503B2, “Amphiphilic material and application thereof in preparation for liposome” (ZHEJIANG UNIVERSITY, priority 2021, dated 2024).

Tests used:
[1] = tested on: orthotropic pancreatic tumor (BxPC3-Luci); test: In vivo antitumor activity in orthotropic BxPC3 tumor-bearing mice
Procedure: The orthotropic pancreatic tumor was established by using the bioluminescent BxPC3 cells (BxPC3-Luci). Bioluminescence intensities in mice were measured using the in vivo imaging system of Caliper IVIS Lumina II (PerkinElmer, USA) to evaluate tumour growth. After inoculation with bioluminescent BxPC3 cells for 8 days, the mice were selected and grouped into five groups (n=5). SCGLN, SGLN, free GEM (all dose equivalent to GEM 20 mg/kg), SCLN and PBS were intravenous injected every two days for a total of five times, the tumor site was treated with ultrasound stimulation (intensity: 2 W/cm^2, 3 MHz, duty cycle: 50%, duration: 10 min, Mettler Sonicator-740) after injection. On the first administration (8th day), 12th, 16th, and 20th day, tumor progress was assessed and semi-quantitatively analyzed via bioluminescence after injection of 10 mg/mL D-luciferin in PBS (200 μL) by using the in vivo imaging system. Mice were sacrificed on the 20th day, and tumors were dissected and weighed. The tumor inhibition rate=100%×(mean tumor weight of PBS group−mean tumor weight of experimental group)/mean tumor weight of PBS group. The tumors were fixed with 4% neutral buffered paraformaldehyde and embedded in paraffin. Tissue sections of 5-μm thick were mounted onto glass slides and stained with hematoxylin-eosin (H&E) and examined by light microscopy (OLYMPUS, BX51, Japan). […]

U251 glioma = test: In vivo antitumor activity in mice bearing U251 glioma subcutaneously
Procedure: In vivo antitumor activity of the liposomal nanometer particle was further tested in another low permeability tumor of U251 glioma. The mice were subcutaneously inoculated with 2×10^7 U251 cells on the right flank. Same as the experiment of pancreatic tumor treatment, mice were randomly grouped into five groups (n=5) on the 6th day after inoculation. SCGLN, SGLN, free GEM (all dose equivalent to GEM 20 mg/kg), SCLN and PBS were intravenous injected every two days for a total of five times, the tumor site was treated with ultrasound stimulation (intensity: 2 W/cm^2, 3 MHz, duty cycle: 50%, duration: 10 min, Mettler Sonicator-740) after injection, the first administration was on the 6th day. The width and length of the tumors and the bodyweight of mice were measured during the treatment. At the end of the experiment, the mice were euthanized, and tumors were dissected and weighed. The therapeutic efficacy of the treatments was evaluated by comparing the experimental group with the control group.

Weight of mice during the treatment (U251 glioma; mouse, in vivo): gradually decreased
Structure (SMILES): Nc1ccn([C@@H]2O[C@H](CO)[C@@H](O)C2(F)F)c(=O)n1 [GEM, gemcitabine]
Mean tumor inhibition rate ([1]; dose equivalent to GEM 20 mg/kg i.v. every two days, five times, ultrasound stimulation, tumor weight on 20th day): 66.7%
Body weight decrease at the end of the experiment ([1]; end of the experiment): ~10 % of the initial weight
Anti-tumor effect (tumor eradication ability) (U251 glioma; dose equivalent to GEM 20 mg/kg i.v. every two days, five times, ultrasound stimulation, end of the experiment): 68.8%
